Earlier results, collected in patent US20060287318A1, “Method for treating glaucoma III B” (priority 2000, published 2006).

Key:
[1] = literature description of a compound series
[2] = test system: Aged Rhesus monkeys; settings: drug treated vs. control eye; baseline and pilocarpine-stimulated conditions; reported in the concurrently filed application "Methods for Treating Glaucoma I"
[3] = test system: Rhesus monkeys; settings: accommodative responses to i.m. pilocarpine; reported in the concurrently filed application "Methods for Treating Glaucoma I"

SMILES | glucose lowering effect [1] | improvement in ophthalmologic function (fluid outflow facility) [2] | improvement in accommodation [3]
Cc1ccc(C(=O)C[n+]2ccccc2)cc1.[Cl-] [1-[2-(4-methylphenyl)-2-oxoethyl]-pyridinium chloride] | inactive | – | –
Cc1sc[n+](CC(=O)c2ccccc2)c1C.[Cl-] [4,5-dimethyl-3-(2-oxoethyl-phenethyl)thiazolium chloride] | – | improvement has been illustrated | Improvement in accommodation has been illustrated
